Source: publication PMC5218480 (PLoS ONE, 2017)

Test system: MV-4-11 cells
Assay: Gene expression microarray analysis (Affymetrix PrimeView) and GSEA
Assay type: cell-based, human
Parameters: RFU PODN (11730768_x_at) / Fold change /veh PODN (11730768_x_at) / RFU LINC00158 (11744669_a_at) / Fold change /veh LINC00158 (11744669_a_at) / RFU DUSP10 (11751237_a_at) / Fold change /veh DUSP10 (11751237_a_at) / RFU ID3 (11757404_x_at) / Fold change /veh ID3 (11757404_x_at) / RFU PLEKHG5 (11737974_s_at) / Fold change /veh PLEKHG5 (11737974_s_at) / RFU LRRC4B (11730491_at) / Fold change /veh LRRC4B (11730491_at) / RFU GIMAP4 (11747438_a_at) / Fold change /veh GIMAP4 (11747438_a_at) / RFU KRT8 (11758183_x_at) / Fold change /veh KRT8 (11758183_x_at) / RFU CNN1 (11734310_a_at) / Fold change /veh CNN1 (11734310_a_at) / RFU VPS37D (11726825_at) / Fold change /veh VPS37D (11726825_at) / RFU C10orf10 (11716522_x_at) / Fold change /veh C10orf10 (11716522_x_at) / RFU KIR2DL2 /// KIR2DL4 /// KIR2DL5A /// KIR2DL5B /// KIR2DS1 /// KIR2DS2 /// KIR2DS3 /// KIR2DS4 /// KIR3DL3 /// KIR3DL3 /// KIR3DS1 (11738374_at) / Fold change /veh KIR2DL2 /// KIR2DL4 /// KIR2DL5A /// KIR2DL5B /// KIR2DS1 /// KIR2DS2 /// KIR2DS3 /// KIR2DS4 /// KIR3DL3 /// KIR3DL3 /// KIR3DS1 (11738374_at) / RFU C1QL1 (11718748_at) / Fold change /veh C1QL1 (11718748_at) / RFU TMPRSS4 (11747572_a_at) / Fold change /veh TMPRSS4 (11747572_a_at) / RFU HAMP (11756126_x_at) / Fold change /veh HAMP (11756126_x_at) / RFU RNFT2 (11725882_a_at) / Fold change /veh RNFT2 (11725882_a_at) / RFU NR4A2 (11747474_a_at) / Fold change /veh NR4A2 (11747474_a_at) / RFU ABCC12 (11746883_a_at) / Fold change /veh ABCC12 (11746883_a_at) / RFU TMEM136 (11760407_x_at) / Fold change /veh TMEM136 (11760407_x_at) / RFU CLDN22 /// WWC2 (11732394_at) / Fold change /veh CLDN22 /// WWC2 (11732394_at) / RFU HLA-DPB1 (11760878_x_at) / Fold change /veh HLA-DPB1 (11760878_x_at) / RFU SPINT1 (11716480_a_at) / Fold change /veh SPINT1 (11716480_a_at) / RFU GAP43 (11754022_s_at) / Fold change /veh GAP43 (11754022_s_at) / RFU A4GNT (11735810_at) / Fold change /veh A4GNT (11735810_at) / RFU PRB3 (11715151_x_at) / Fold change /veh PRB3 (11715151_x_at) / RFU TUBB4B (11761932_at) / Fold change /veh TUBB4B (11761932_at) / RFU CAPN14 (11732068_a_at) / Fold change /veh CAPN14 (11732068_a_at) / RFU TMCC2 (11721928_a_at) / Fold change /veh TMCC2 (11721928_a_at) / RFU IRGQ (11745062_a_at) / Fold change /veh IRGQ (11745062_a_at) / RFU FAM174B (11720279_a_at) / Fold change /veh FAM174B (11720279_a_at) / RFU TMPRSS4 (11748680_a_at) / Fold change /veh TMPRSS4 (11748680_a_at) / RFU FAM212B (11763350_a_at) / Fold change /veh FAM212B (11763350_a_at) / RFU PLEKHG5 (11743358_a_at) / Fold change /veh PLEKHG5 (11743358_a_at) / RFU ZSCAN30 (11745921_a_at) / Fold change /veh ZSCAN30 (11745921_a_at) / RFU CMKLR1 (11741424_a_at) / Fold change /veh CMKLR1 (11741424_a_at) / RFU LOC101060620 /// MAPK8IP1 (11723275_at) / Fold change /veh LOC101060620 /// MAPK8IP1 (11723275_at) / RFU SPTSSB (11747773_x_at) / Fold change /veh SPTSSB (11747773_x_at) / RFU PRSS12 (11739890_at) / Fold change /veh PRSS12 (11739890_at) / RFU BIN1 (11741810_x_at) / Fold change /veh BIN1 (11741810_x_at) / RFU WNT11 (11732464_a_at) / Fold change /veh WNT11 (11732464_a_at) / RFU C10orf10 (11716521_a_at) / Fold change /veh C10orf10 (11716521_a_at) / RFU C5orf56 (11738089_at) / Fold change /veh C5orf56 (11738089_at) / RFU CYB561 (11721691_x_at) / Fold change /veh CYB561 (11721691_x_at) / RFU ANKRD19P (11752326_a_at) / Fold change /veh ANKRD19P (11752326_a_at) / RFU OR2T12 /// OR2T33 /// OR2T8 (11738714_s_at) / Fold change /veh OR2T12 /// OR2T33 /// OR2T8 (11738714_s_at) / RFU VCAN (11748164_a_at) / Fold change /veh VCAN (11748164_a_at) / RFU JSRP1 (11732532_at) / Fold change /veh JSRP1 (11732532_at) / RFU KRTAP10-11 (11738290_x_at) / Fold change /veh KRTAP10-11 (11738290_x_at) / RFU MYO3A (11730013_a_at) / Fold change /veh MYO3A (11730013_a_at) / RFU EBF3 (11725865_a_at) / Fold change /veh EBF3 (11725865_a_at) / RFU CAMK2N1 (11719241_x_at) / Fold change /veh CAMK2N1 (11719241_x_at) / RFU C5orf56 (11738088_a_at) / Fold change /veh C5orf56 (11738088_a_at) / RFU OLFML3 (11715873_a_at) / Fold change /veh OLFML3 (11715873_a_at) / RFU LOC100653217 /// NTM (11731650_a_at) / Fold change /veh LOC100653217 /// NTM (11731650_a_at) / RFU MAPK11 (11762145_a_at) / Fold change /veh MAPK11 (11762145_a_at) / RFU FIZ1 (11724087_x_at) / Fold change /veh FIZ1 (11724087_x_at) / RFU OASL (11726364_x_at) / Fold change /veh OASL (11726364_x_at) / RFU SOX15 (11748057_x_at) / Fold change /veh SOX15 (11748057_x_at) / RFU CD79A (11719716_a_at) / Fold change /veh CD79A (11719716_a_at) / RFU HIST1H1D (11736915_at) / Fold change /veh HIST1H1D (11736915_at) / RFU CASKIN2 (11723855_a_at) / Fold change /veh CASKIN2 (11723855_a_at) / RFU LOC730098 (11760151_x_at) / Fold change /veh LOC730098 (11760151_x_at) / RFU OR4N2 (11742367_at) / Fold change /veh OR4N2 (11742367_at) / RFU PRRT2 (11749266_a_at) / Fold change /veh PRRT2 (11749266_a_at) / RFU SNX32 (11753110_a_at) / Fold change /veh SNX32 (11753110_a_at) / RFU CDHR5 (11726645_a_at) / Fold change /veh CDHR5 (11726645_a_at) / RFU RCAN1 (11760418_a_at) / Fold change /veh RCAN1 (11760418_a_at) / RFU FAM167A (11723789_a_at) / Fold change /veh FAM167A (11723789_a_at) / RFU FAM26E (11764081_at) / Fold change /veh FAM26E (11764081_at) / RFU ISYNA1 (11749810_s_at) / Fold change /veh ISYNA1 (11749810_s_at) / RFU ACY1 (11761880_at) / Fold change /veh ACY1 (11761880_at) / RFU 11764098_at / Fold change /veh 11764098_at / RFU SAMD14 (11745864_x_at) / Fold change /veh SAMD14 (11745864_x_at) / RFU NPB (11741838_a_at) / Fold change /veh NPB (11741838_a_at) / RFU TMPRSS6 (11731388_a_at) / Fold change /veh TMPRSS6 (11731388_a_at) / RFU KRTAP10-2 (11738614_at) / Fold change /veh KRTAP10-2 (11738614_at) / RFU ARHGAP8 /// PRR5-ARHGAP8 (11727945_x_at) / Fold change /veh ARHGAP8 /// PRR5-ARHGAP8 (11727945_x_at) / RFU KRTAP5-7 /// NADSYN1 (11734609_at) / Fold change /veh KRTAP5-7 /// NADSYN1 (11734609_at) / RFU RASL12 (11751679_a_at) / Fold change /veh RASL12 (11751679_a_at) / RFU CDKN2B (11736163_a_at) / Fold change /veh CDKN2B (11736163_a_at) / RFU PRF1 (11729649_at) / Fold change /veh PRF1 (11729649_at) / RFU, ZNF638 /// ZNF638-IT1 / Fold change vs veh, ZNF638 /// ZNF638-IT1 / RFU, PANK3 / Fold change vs veh, PANK3 / RFU, SH3YL1 / Fold change vs veh, SH3YL1 / RFU, ZEB2 / Fold change vs veh, ZEB2 / RFU, NRIP1 / Fold change vs veh, NRIP1 / RFU, PTTG1IP / Fold change vs veh, PTTG1IP / RFU, CAPN2 / Fold change vs veh, CAPN2 / RFU, MED14 / Fold change vs veh, MED14 / RFU, SNORA58 / Fold change vs veh, SNORA58 / RFU, C1orf63 / Fold change vs veh, C1orf63 / RFU, LRRFIP1 / Fold change vs veh, LRRFIP1 / RFU, NDUFAF7 / Fold change vs veh, NDUFAF7 / RFU, SLC12A2 / Fold change vs veh, SLC12A2 / RFU, IBTK / Fold change vs veh, IBTK / RFU, ESF1 / Fold change vs veh, ESF1 / Fold change vs veh, TMEM50B / RFU, TAOK1 / Fold change vs veh, TAOK1 / RFU, ACBD3 / Fold change vs veh, ACBD3 / RFU, TMA16 / Fold change vs veh, TMA16 / RFU, RWDD3 / Fold change vs veh, RWDD3 / RFU, BCAT1 / Fold change vs veh, BCAT1 / RFU, EDEM3 / Fold change vs veh, EDEM3 / RFU, TMEM33 / Fold change vs veh, TMEM33 / RFU, WDR75 / Fold change vs veh, WDR75 / RFU, AHCTF1 / Fold change vs veh, AHCTF1 / RFU, TFRC / Fold change vs veh, TFRC / RFU, ZDHHC17 / Fold change vs veh, ZDHHC17 / RFU, NOM1 / Fold change vs veh, NOM1 / RFU, ARL8B / Fold change vs veh, ARL8B / RFU, ZBTB11 / Fold change vs veh, ZBTB11 / RFU, TAMM41 / Fold change vs veh, TAMM41 / RFU, KIAA1704 /// LOC100996395 / Fold change vs veh, KIAA1704 /// LOC100996395 / RFU, ING1 / Fold change vs veh, ING1 / RFU, TRMT61B / Fold change vs veh, TRMT61B / RFU, FUBP3 / Fold change vs veh, FUBP3 / RFU, TP53 / Fold change vs veh, TP53 / RFU, TNKS2 / Fold change vs veh, TNKS2 / RFU, ZFP14 / Fold change vs veh, ZFP14 / RFU, ACTR2 / Fold change vs veh, ACTR2 / RFU, PPP3R1 / Fold change vs veh, PPP3R1 / RFU, PIK3R1 / Fold change vs veh, PIK3R1 / RFU, HNRNPA1 / Fold change vs veh, HNRNPA1 / RFU, RNF170 / Fold change vs veh, RNF170 / RFU, ZNF28 / Fold change vs veh, ZNF28 / RFU, RNGTT / Fold change vs veh, RNGTT / RFU, OGT / Fold change vs veh, OGT / RFU, BRD1 / Fold change vs veh, BRD1 / RFU, MARS / Fold change vs veh, MARS / RFU, ZNF655 / Fold change vs veh, ZNF655 / RFU, FAHD1 / Fold change vs veh, FAHD1 / RFU, BDP1 / Fold change vs veh, BDP1 / RFU, LRRCC1 / Fold change vs veh, LRRCC1 / RFU, ARID1A / Fold change vs veh, ARID1A / RFU, ZNF146 / Fold change vs veh, ZNF146 / RFU, ZNF330 / Fold change vs veh, ZNF330 / RFU, GPN3 / Fold change vs veh, GPN3 / RFU, C9orf123 / Fold change vs veh, C9orf123 / RFU, N4BP2L2 / Fold change vs veh, N4BP2L2 / RFU, ARFIP1 / Fold change vs veh, ARFIP1 / RFU, FAM179B / Fold change vs veh, FAM179B / RFU, BCL10 / Fold change vs veh, BCL10 / RFU, UHRF1BP1L / Fold change vs veh, UHRF1BP1L / RFU, BET1 / Fold change vs veh, BET1 / RFU, CNOT2 / Fold change vs veh, CNOT2 / RFU, ZNF268 / Fold change vs veh, ZNF268 / Fold change vs veh, ZNF507 / RFU, DGCR2 / Fold change vs veh, DGCR2 / RFU, WDSUB1 / Fold change vs veh, WDSUB1 / Fold change vs veh, HSP90B1 /// MIR3652 / RFU, ADSS / Fold change vs veh, ADSS / RFU, GK / Fold change vs veh, GK / RFU, ZNF148 / Fold change vs veh, ZNF148 / RFU, TAF9 / Fold change vs veh, TAF9 / RFU, SLC1A5 / Fold change vs veh, SLC1A5 / RFU, SLMO2 / Fold change vs veh, SLMO2 / RFU, ABCC4 / Fold change vs veh, ABCC4 / RFU, LOC101060439 /// RAP1B / Fold change vs veh, LOC101060439 /// RAP1B / RFU, RFX7 / Fold change vs veh, RFX7 / RFU, GTPBP10 / Fold change vs veh, GTPBP10 / RFU, CNEP1R1 / Fold change vs veh, CNEP1R1 / RFU, BIVM-ERCC5 /// ERCC5 / Fold change vs veh, BIVM-ERCC5 /// ERCC5 / RFU, ILF3 / Fold change vs veh, ILF3 / RFU 11762660_at / Fold change /veh 11762660_at / RFU VCAN (11757783_s_at) / Fold change /veh VCAN (11757783_s_at) / RFU DDX43 (11728927_at) / Fold change /veh DDX43 (11728927_at) / RFU KRT8 (11758188_x_at) / Fold change /veh KRT8 (11758188_x_at) / RFU NKD1 (11759106_at) / Fold change /veh NKD1 (11759106_at) / RFU SRD5A1 (11742802_a_at) / Fold change /veh SRD5A1 (11742802_a_at) / RFU TPSAB1 /// TPSB2 (11721975_s_at) / Fold change /veh TPSAB1 /// TPSB2 (11721975_s_at) / RFU GSTM3 (11746129_a_at) / Fold change /veh GSTM3 (11746129_a_at) / RFU IL23R (11737362_x_at) / Fold change /veh IL23R (11737362_x_at) / RFU TMEM51 (11727254_a_at) / Fold change /veh TMEM51 (11727254_a_at) / RFU PIWIL2 (11732686_x_at) / Fold change /veh PIWIL2 (11732686_x_at) / RFU ORM1 (11744905_x_at) / Fold change /veh ORM1 (11744905_x_at) / RFU CCDC152 (11743942_at) / Fold change /veh CCDC152 (11743942_at) / RFU ECM1 (11717891_a_at) / Fold change /veh ECM1 (11717891_a_at) / RFU IL23R (11748794_a_at) / Fold change /veh IL23R (11748794_a_at) / RFU TNFAIP8L3 (11732012_x_at) / Fold change /veh TNFAIP8L3 (11732012_x_at) / RFU MBOAT4 (11741988_at) / Fold change /veh MBOAT4 (11741988_at) / RFU 11764193_at / Fold change /veh 11764193_at / RFU TMEM53 (11763286_at) / Fold change /veh TMEM53 (11763286_at) / RFU MAGEB2 (11727129_at) / Fold change /veh MAGEB2 (11727129_at) / RFU TMEM200A (11744735_a_at) / Fold change /veh TMEM200A (11744735_a_at) / RFU CCDC152 (11751479_a_at) / Fold change /veh CCDC152 (11751479_a_at) / RFU FAM211A (11726209_a_at) / Fold change /veh FAM211A (11726209_a_at) / RFU RGS16 (11746705_a_at) / Fold change /veh RGS16 (11746705_a_at) / RFU VCAN (11755009_s_at) / Fold change /veh VCAN (11755009_s_at) / RFU RHOB (11743442_s_at) / Fold change /veh RHOB (11743442_s_at) / RFU RGS16 (11720943_a_at) / Fold change /veh RGS16 (11720943_a_at) / RFU RGS16 (11720944_at) / Fold change /veh RGS16 (11720944_at) / RFU, VPS4B / Fold change vs veh, VPS4B / RFU, CREB1 / Fold change vs veh, CREB1 / RFU, DNAJC13 / Fold change vs veh, DNAJC13 / RFU, GNAQ / Fold change vs veh, GNAQ / RFU, CDK5R1 / Fold change vs veh, CDK5R1 / RFU, ZRANB3 / Fold change vs veh, ZRANB3 / RFU, CUL4A / Fold change vs veh, CUL4A / RFU, CCNY / Fold change vs veh, CCNY / RFU, UFL1 / Fold change vs veh, UFL1 / RFU, COG3 / Fold change vs veh, COG3 / RFU, DIAPH2 / Fold change vs veh, DIAPH2 / RFU, SKA2 / Fold change vs veh, SKA2 / RFU, AFF3 / Fold change vs veh, AFF3 / RFU, LMF1 / Fold change vs veh, LMF1 / RFU, IPO11 / Fold change vs veh, IPO11 / RFU, DFFB / Fold change vs veh, DFFB / RFU, FOXP1 / Fold change vs veh, FOXP1 / RFU, CARD8 / Fold change vs veh, CARD8 / RFU, STRN3 / Fold change vs veh, STRN3 / RFU, ADK / Fold change vs veh, ADK / RFU, RASSF2 / Fold change vs veh, RASSF2 / RFU, WIPF1 / Fold change vs veh, WIPF1 / RFU, LARP1B / Fold change vs veh, LARP1B / RFU, RASA1 / Fold change vs veh, RASA1 / RFU, RB1 / Fold change vs veh, RB1 / RFU, PPFIA1 / Fold change vs veh, PPFIA1 / RFU, MAT2A / Fold change vs veh, MAT2A / RFU, CCT5 / Fold change vs veh, CCT5 / RFU, WDR92 / Fold change vs veh, WDR92 / RFU, CUX1 / Fold change vs veh, CUX1 / RFU, TTC7A / Fold change vs veh, TTC7A / RFU, TMEM135 / Fold change vs veh, TMEM135 / RFU, DEPTOR / Fold change vs veh, DEPTOR / RFU, CPM / Fold change vs veh, CPM / RFU, DNAJB6 / Fold change vs veh, DNAJB6 / RFU, CACNA2D3 / Fold change vs veh, CACNA2D3 / RFU, DTX4 / Fold change vs veh, DTX4 / RFU, TFCP2 / Fold change vs veh, TFCP2 / RFU, GMCL1 /// GMCL1P1 / Fold change vs veh, GMCL1 /// GMCL1P1 / RFU, AEBP2 / Fold change vs veh, AEBP2 / RFU, SNHG1 /// SNORD22 /// SNORD25 /// SNORD26 /// SNORD27 /// SNORD28 /// SNORD29 /// SNORD31 / Fold change vs veh, SNHG1 /// SNORD22 /// SNORD25 /// SNORD26 /// SNORD27 /// SNORD28 /// SNORD29 /// SNORD31 / Fold change (Aza/veh), C12orf56 (ProbeSet 11735607_a_at) / Fold change (ACY-1035/veh), C12orf56 (ProbeSet 11735607_a_at) / Fold change (Aza/veh), FGFR1OP (ProbeSet 11751329_s_at) / Fold change (ACY-1035/veh), FGFR1OP (ProbeSet 11751329_s_at) / Fold change (Aza/veh), VPS36 (ProbeSet 11739960_a_at) / Fold change (ACY-1035/veh), VPS36 (ProbeSet 11739960_a_at) / RFU SYPL1 (11715823_x_at) / Fold change /veh SYPL1 (11715823_x_at) / RFU IGFBP7 (11715501_s_at) / Fold change /veh IGFBP7 (11715501_s_at) / RFU REEP3 (11722064_at) / Fold change /veh REEP3 (11722064_at) / RFU IGLL1 (11728026_x_at) / Fold change /veh IGLL1 (11728026_x_at): dose or concentration left out as unconfirmed
Details: ProbeSet 11732165_x_at; LIST D

**Q.** Which “Fold change vs veh, LMF1” value does the source give for Nc1ccc(-c2cccs2)cc1NC(=O)c1ccc2c(c1)cc(C1CC1)n2CCN1CCOCC1 [ACY-1035] here?
**A.** The value was 0.85.
